ChEMBL document CHEMBL1130671, “beta Gal(1-->S-4)beta GlcNac--OR: a galactosidase-stable substrate for alpha(1-->3)fucosyltransferase” (Bioorg Med Chem Lett, 1998)
The source made the active and inactive calls. No cut-off for these calls is given here.

How the values were obtained:
Homo sapiens [1] = organism: Homo sapiens; assay: Potency against purified human milk alpha(1,3/4) fucosyltransferase; IA inactive
Homo sapiens [2] = organism: Homo sapiens; assay: Kinetic constant for purified human milk alpha(1,3/4) fucosyltransferase

SMILES | Potency (Homo sapiens [1]) | Km (Homo sapiens [2])
COC(=O)CCCCCCCCOC1OC(CO)C(OC2SC(CO)C(O)C(O)C2O)C(O)C1NC(C)=O (configuration not stated) | inactive | 
COC(=O)CCCCCCCCOC1OC(CO)C(SC2OC(CO)C(O)C(O)C2O)C(O)C1NC(C)=O (configuration not stated) |  | 230 µM
